In paper PMC6888004 (International Journal of Molecular Sciences, 2019):

What was measured:
[1] = set-up: method as in PMID 10639165; settings: cited from earlier work
endometrial cancer = test system: endometrial cancer; set-up: method as in https://clinicaltrials.gov; settings: phase III, ref https://clinicaltrials.gov; cited from earlier work
EBC-1 cells [2] = test: Cellular uptake in EBC-1 cells by flow cytometry; type: cell-based; settings: 0.1, 1, 10 µM; 2, 6, 24, 72 h
Protocol: 2 × 10^4 EBC-1 cells per well were seeded onto 24 well plates (VWR) and allowed to adhere for 48 h. Cells were treated with [D-Lys^6(FITC)]–GnRH-I in complemented EMEM (Lonza) at 0.1, 1, and 10 µM, and incubated in a humidified, 5% CO2 atmosphere incubator for 2, 6, 24, and 72 h at 37 °C.
After incubation, supernatant was discarded and the cells were washed twice with PBS (Lonza). Trypsin (Thermo Fisher Scientific, cat. no.: 25300062) was added for 10 min at 37 °C. Cells were pelleted (250× g, 4 min, 4 °C) in flow cytometry tubes, resuspended in 300 µL PBS and kept at 4 °C for the rest of the experiment. The fluorescence intensity of the conjugate-stained cells was analysed using a FACS Calibur flow cytometer (BD Biosciences, San Jose, CA) using channel FL1. Data were evaluated by CellQuest Pro software (BD Biosciences). The relative median fluorescent intensity (MFI) values (based on DMSO control) were calculated.
Calculation formula: relative MFI compound;xh;yµM=MFI compound;xh;yµM/MFI DMSO control;xh • x time (h) • y concentration (µM)

EBC-1 cells [3] = test: Colocalization with lysosomes in EBC-1 cells by confocal microscopy; type: cell-based; settings: 10 µM, 24 h
Protocol: EBC-1 cells were seeded in eight well Ibidi® μ-Slide microscopic slides (2 × 10^4 cells/well) and allowed to adhere for 48 h. Cells were then treated with 10 µM [D-Lys^6(FITC)]–GnRH-I in complemented EMEM (Lonza) and incubated in a humidified, 5% CO2 atmosphere incubator for 24 h at 37 °C.
To investigate colocalization of [D-Lys^6(FITC)]–GnRH-I with lysosomes (in Figure 6), after [D-Lys^6(FITC)]–GnRH-I treatment (24 h, 10 µM), Lysoview 633 dye was added to the treating medium and the cells were incubated for a further 1 h. After incubation, cells were washed twice with EMEM. Images of the living cells were acquired with a Zeiss Confocal LSM 710 microscope [Objective: Plan-Apochromat 63×/1.40 Oil DIC M27. Pinhole: 1.95 AU. Laser wavelength: 488 nm and 633 nm. Detection wavelength: 496–573 nm; 633–693 nm)].

Compound | half-life in human serum [1] | clinical outcome compared to doxorubicin (endometrial cancer) | cellular uptake (EBC-1 cells [2]) | colocalization with lysosome marker Lysoview 633 (EBC-1 cells [3])
zoptarelin doxorubicin | approximately 2 h | could neither extend overall survival, nor improve the safety profile |  | 
CC(C)C[C@H](NC(=O)[C@@H](CCCCNC(=S)Nc1ccc2c(c1)C(=O)OC21c2ccc(O)cc2Oc2cc(O)ccc21)NC(=O)[C@H](Cc1ccc(O)cc1)NC(=O)[C@H](CO)NC(=O)[C@H](Cc1c[nH]c2ccccc12)NC(=O)[C@H](Cc1c[nH]cn1)NC(=O)[C@@H]1CCC(=O)N1)C(=O)N[C@@H](CCCNC(=N)N)C(=O)N1CCC[C@H]1C(=O)NCC(N)=O [[D-Lys^6(FITC)]–GnRH-I] |  |  | concentration-dependent dynamic uptake | highly correlated
